The values that follow come from patent US20250312497A1, “METHOD OF TREATING PROSTATE CANCER” (Novartis AG, priority 2022, published 2025).

Assay [1] concerns PSMA-positive metastatic castration-resistant prostate cancer (mCRPC). The assay is described as follows: PSMAfore phase III: overall survival (OS), interim analysis. The assay is classed as in vivo, human. Particulars: first interim analysis DCO 2 Oct 2022. How it is done: After radiographic progression, follow up for survival will continue.
OS is hierarchically tested based on a three-look group sequential design using a Lan DeMets (O'Brien Flemming) alpha spending function. The final OS analysis was not planned to be performed at the time of the interim rPFS analysis, which is reported in this FIR.
Following the hierarchical testing strategy defined in the study protocol, OS was tested once rPFS was statistically significant. The one-sided alpha level (<0.000000001012) required for a significant OS difference in this first interim analysis was calculated from the pre-specified alpha spending function and the number of events observed at the time of rPFS analysis.
Results in terms of the OS at the time of the first interim OS analysis are based on 13.5% (40/297 deaths).
The second interim analysis for OS is planned after additional follow up when approximately 75% (223/297) of the targeted number of deaths/events have occurred. If OS is not statistically significant at the second interim analysis, a final analysis is planned when approximately 297 deaths have been recorded.

The subject of assay [2] is metastatic castration-resistant prostate cancer. Particulars: cited from earlier work.
For assay [3], the system named is docetaxel progressing metastatic castration-resistant prostate cancer. Particulars: randomized, 200 patients; P<0.0001; cited from earlier work.

Regarding `O=C([O-])CN1CCN(CC(=O)[O-])CCN(CC(=O)NCC2CCC(C(=O)N[C@@H](Cc3ccc4ccccc4c3)C(=O)NCCCC[C@H](NC(=O)N[C@@H](CCC(=O)O)C(=O)O)C(=O)O)CC2)CCN(CC(=O)[O-])CC1.[177Lu+3]` (stereo partly shown) [[177Lu]Lu-PSMA-617, lutetium (177Lu) vipivotide tetraxetan], in assay [1] (Kaplan-Meier), the “median OS (95% CI)” value is “NE [12.16, NE]”. For the same molecule, the “OS: Number of events” value in assay [1] (full analysis set) is on record as 20 (8.6) n(%). The “objective response rate in measurable disease by RECIST (CR and PR)” value in assay [2] (27 participants with measurable disease) is on record as 56%. Besides, the median overall survival in assay [2] (95% CI 10.5-18.0) is 13.3 months. In addition, the “participants with reduction of PSA of 80% or more” value in assay [2] (up to 4 cycles of 4-8 GBq every 6 weeks) is 44%. The “participants with PSA response (reduction in PSA of at least 50%)” value in assay [2] (up to 4 cycles of 4-8 GBq every 6 weeks, post-taxane, post abiraterone/enzalutamide) is on record as 64%. For the same molecule, the “proportion of patients with PSA decline >=50%” value in assay [3] is listed as 66%.
